Source: ChEMBL document CHEMBL1649263, “In vitro activity of a new quinoline derivative, ER-2, against clinical isolates of Mycoplasma pneumoniae and Mycoplasma hominis” (2009)
Converted amounts (≈) assume the structure as drawn.

What was measured:
[1] = test system: Mycoplasmoides pneumoniae; assay: Antimicrobial activity against Mycoplasma pneumoniae by agar dilution method; type: functional
[2] = test system: Metamycoplasma hominis; assay: Antimicrobial activity against Mycoplasma hominis by agar dilution method; type: functional

Row | SMILES | MIC [1] [µg/mL] | MIC50 [1] [µg/mL] | MIC90 [1] [µg/mL] | MIC50 [2] [µg/mL] | MIC90 [2] [µg/mL] | MIC [2] [µg/mL]
1 | CN1C(=O)C2CC3C4Nc5ccc(Cl)cc5C(C)(C)C4CN3C2N(C)C1=O (stereo not given) | 0.001 (≈ 0.00257 µM) | 0.001 (≈ 0.00257 µM) | 0.016 (≈ 0.0411 µM) | 0.032 (≈ 0.0823 µM) | 0.06 (≈ 0.154 µM) | –
2 | CC[C@H]1OC(=O)[C@H](C)[C@@H](O[C@H]2C[C@@](C)(OC)[C@@H](O)[C@H](C)O2)[C@H](C)[C@@H](O[C@@H]2O[C@H](C)C[C@H](N(C)C)[C@H]2O)[C@](C)(O)C[C@@H](C)CN(C)[C@H](C)[C@@H](O)[C@]1(C)O [AZITHROMYCIN] | 0.001 (≈ 0.00134 µM) | 0.001 (≈ 0.00134 µM) | 0.016 (≈ 0.0214 µM) | – | – | –
3 | O=C(O)c1cn(C2CC2)c2cc(N3CCNCC3)c(F)cc2c1=O [CIPROFLOXACIN] | – | 4 (≈ 12.1 µM) | 4 (≈ 12.1 µM) | 1 (≈ 3.02 µM) | 1 (≈ 3.02 µM) | –
4 | CCC[C@@H]1C[C@@H](C(=O)N[C@@H]([C@H]2O[C@H](SC)[C@H](O)[C@@H](O)[C@H]2O)[C@H](C)Cl)N(C)C1 [CLINDAMYCIN] | – | – | – | 0.032 (≈ 0.0753 µM) | 0.032 (≈ 0.0753 µM) | –
5 | C[C@H]1c2cccc(O)c2C(=O)C2=C(O)[C@]3(O)C(=O)C(C(N)=O)=C(O)[C@@H](N(C)C)[C@@H]3[C@@H](O)[C@@H]21.O [DOXYCYCLINE] | – | 0.25 | 0.25 | 2 | 2 | –
6 | COc1c(N2CCNC(C)C2)c(F)cc2c(=O)c(C(=O)O)cn(C3CC3)c12 (stereo not given) [GATIFLOXACIN] | – | 0.125 (≈ 0.333 µM) | 0.125 (≈ 0.333 µM) | 0.125 (≈ 0.333 µM) | 0.125 (≈ 0.333 µM) | –
7 | CO/N=C1\CN(c2nc3c(cc2F)c(=O)c(C(=O)O)cn3C2CC2)CC1CN (stereo not given) [GEMIFLOXACIN] | – | 0.032 (≈ 0.0822 µM) | 0.125 (≈ 0.321 µM) | – | – | –
8 | C[C@H]1COc2c(N3CCN(C)CC3)c(F)cc3c(=O)c(C(=O)O)cn1c23.C[C@H]1COc2c(N3CCN(C)CC3)c(F)cc3c(=O)c(C(=O)O)cn1c23.O [LEVOFLOXACIN] | 0.012 | 1 | 1 | 0.25 | 0.5 | 0.1
9 | COc1c(N2C[C@@H]3CCCN[C@@H]3C2)c(F)cc2c(=O)c(C(=O)O)cn(C3CC3)c12 [MOXIFLOXACIN] | 0.06 (≈ 0.149 µM) | 0.06 (≈ 0.149 µM) | 0.12 (≈ 0.299 µM) | 0.06 (≈ 0.149 µM) | 0.06 (≈ 0.149 µM) | 0.063 (≈ 0.157 µM)
10 | CN(C)[C@@H]1C(O)=C(C(N)=O)C(=O)[C@@]2(O)C(O)=C3C(=O)c4c(O)cccc4[C@@](C)(O)[C@H]3C[C@@H]12 [TETRACYCLINE] | – | 1 (≈ 2.25 µM) | 1 (≈ 2.25 µM) | 8 (≈ 18 µM) | 8 (≈ 18 µM) | –
